In the experiment the test system is C. difficile spores. The experiment can be described thus: Germination efficacy testing of germinant solution with antimicrobial and preservative (neutraliser, heat shock or ice). Type of experiment: cell-based. Particulars: for effect on the germinant solution / germination: antimicrobial added to germinant solution; for initiation of germination / sporicidal activity: without amino acids and taurocholate. The procedure: The solution was heated and mixed thoroughly to dissolve all of the components before filtration through a pore size of 0.2 μm for sterilization. (This solution is double the working strength as it is diluted 1:2 during the experiment).
The pH was adjusted to 7 and was autoclaved to sterilize.
For the control, 100 μL of sterilized distilled water was mixed with 100 μL of C. difficile spore suspension. Spore suspensions were also incubated with solutions containing benzalkonium chloride and Tris buffer (without amino acids or taurocholate), benzyl alcohol with Tris buffer (without amino acids and taurocholate) and a solution containing the five amino acids and taurocholate (with no antimicrobials). […] (miniMACS Anaerobic Workstation (Don Whitley Scientific Ltd)).

Data on 4 molecules can be found in US20160157490A1, “COMPOSITIONS COMPRISING A GERMINANT AND AN ANTIMICROBIAL AGENT” (priority 2010, published 2016).

Take benzalkonium chloride: the “effect on the germinant solution / germination” value is reported as “do not affect germination”, the initiation of germination result is “did not initiate germination” and the sporicidal activity result is “not sporicidal”.
On to `O=C(O)CN(CCN(CC(=O)O)CC(=O)O)CC(=O)O` [EDTA], for which the “effect on the germinant solution / germination” value is “inhibit the germinant solution”.
As for `OCc1ccccc1` [benzyl alcohol], the “effect on the germinant solution / germination” value is on record as “do not affect germination”, the initiation of germination result was “did not initiate germination” and the sporicidal activity result is “not sporicidal”.
On to `N=C(NCCCCCCNC(=N)NC(=N)Nc1ccc(Cl)cc1)NC(=N)Nc1ccc(Cl)cc1.O=C(O)[C@H](O)[C@@H](O)[C@H](O)[C@H](O)CO.O=C(O)[C@H](O)[C@@H](O)[C@H](O)[C@H](O)CO` [cholorohexidine], for which the “effect on the germinant solution / germination” value is reported as “inhibit the germinant solution”.
